Legend:
[1] = target: T1, CDK4 (Homo sapiens, UniProt P11802); assay: In vitro kinase inhibition IC50, luminescence (ADP Glo), retinoblastoma substrate; type: biochemical; conditions: read-out: CDK4/D1 IC50
T1 construct: purchased Invitrogen PR8064A
Procedure: (§1) IC50 values of compounds against CDK4 and CDK6 were determined by luminescence using retinoblastoma as substrate. Kinase assays were performed in kinase buffer (#PV6135, Invitrogen Life Technologies, Grand Island, N.Y.) where total reaction volume was […] in 96-well half area white plates (#3693, Costar). One microliter of 25×test compounds at specific concentrations (e.g., final concentration range: 0.1 nM-200 nM) was mixed with 10 μL of 2.5×kinase (5 nM, CDK4 #PR8064A and CDK6 #PR8422B, Invitrogen) solution and 14 μL of 4× mixed solution with retinoblastoma (1 μM, #12-439, EMD Millipore, Hayward, Calif.) and ATP (25 μM, #V7038, Promega, Madison, Wis.). The plates were covered and incubated for 2H at room temperature. At the end of incubation, 25 μL of stop solution—ADP Glo reagent (#V7002, Promega) was added. After incubation for 45 min at room temperature, 50 μL of detection reagent (##V7002, Promega) was added. Readings were taken at 15 min and 45 min incubation after detection reagent was added in a Synergy Neo Plate reader (BioTek, Winooski, Vt.) at single excitation of 340 nm and Dual emission at 495 nm and 520 nm respectively. The following equations were used in the CDK4 and CDK6 assay data analysis. Percent inhibition (100-% activity) was fitted to the “four-parameter logistic model” in XLfit for determination of IC50 values.
(§2) Percent conversion of enzyme=100−{(RLUNo Drug−No enzyme*100)/RLUNo drug+Enzyme} Equation 1:
(§3) Percent conversion at each data point=100−{(RLUAverage(Drug+enzyme)*100)!RLUNo drug+Enzyme} Equation 2:
(§4) Percent Inhibition=100*(% Conversioneach data point/% ConversionEnzyme) Equation 3: […]

[2] = target: T2, FMS kinase (Homo sapiens, UniProt P07333); assay: LanthaScreen Eu Kinase Binding Assay (ATP, fluorescent-PolyGT substrate); type: biochemical
T2 construct: purchased Invitrogen (Life Technologies)
T2 sequence (P07333 20-972): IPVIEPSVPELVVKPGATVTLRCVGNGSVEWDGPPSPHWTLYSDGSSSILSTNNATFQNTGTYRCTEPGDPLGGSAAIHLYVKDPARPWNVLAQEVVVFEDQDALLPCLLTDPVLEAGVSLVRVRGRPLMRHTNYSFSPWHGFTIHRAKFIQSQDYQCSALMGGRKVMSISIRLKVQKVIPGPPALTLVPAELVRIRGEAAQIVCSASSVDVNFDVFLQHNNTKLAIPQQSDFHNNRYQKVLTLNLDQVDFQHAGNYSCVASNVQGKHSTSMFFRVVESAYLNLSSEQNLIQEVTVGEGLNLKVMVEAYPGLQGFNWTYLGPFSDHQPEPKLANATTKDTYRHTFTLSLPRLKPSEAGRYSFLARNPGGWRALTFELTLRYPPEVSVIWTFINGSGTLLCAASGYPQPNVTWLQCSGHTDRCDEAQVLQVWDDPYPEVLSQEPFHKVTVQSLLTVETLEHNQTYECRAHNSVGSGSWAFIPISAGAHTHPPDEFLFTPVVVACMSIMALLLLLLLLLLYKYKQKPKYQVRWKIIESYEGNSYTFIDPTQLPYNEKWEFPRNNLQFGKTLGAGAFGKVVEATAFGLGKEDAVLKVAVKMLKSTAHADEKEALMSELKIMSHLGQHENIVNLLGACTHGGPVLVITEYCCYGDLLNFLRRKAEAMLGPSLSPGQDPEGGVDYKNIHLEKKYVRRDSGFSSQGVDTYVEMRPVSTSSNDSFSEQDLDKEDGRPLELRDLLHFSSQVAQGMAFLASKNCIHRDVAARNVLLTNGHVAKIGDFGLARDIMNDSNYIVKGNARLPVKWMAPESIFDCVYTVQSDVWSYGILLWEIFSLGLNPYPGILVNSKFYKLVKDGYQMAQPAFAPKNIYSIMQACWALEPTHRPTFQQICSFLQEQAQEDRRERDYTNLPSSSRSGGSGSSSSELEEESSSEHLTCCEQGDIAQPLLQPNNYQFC
Procedure: IC50 values of compounds against FMS kinase were determined by LanthaScreen™ Eu Kinase Binding Assay at Invitrogen (Life Technologies Grand Island, N.Y.) where total reaction volume was 10 μL in low-volume 384-well plates (#4511, Corning). Serially diluted compounds (3-fold) were incubated with kinase (1.25 nM) for 10 min, following which a mixture of ATP (10 μM) (#A1852, Sigma, St-Louis, Mo.) and fluorescent-PolyGT substrate (200 nM) (#PV3610, Invitrogen, Life Technologies Grand Island, N.Y.) was added and incubated in dark at room temperature for 1H. After 1H, 10 μL stop solution containing Terbium labeled antibody (4 nM) (#PV3529, Invitrogen, Life Technologies Grand Island, N.Y.) and EDTA (#E5134, Sigma, St-Louis, Mo.) (20 mM) in TR-FRET dilution buffer (#PV3574, Invitrogen, Life Technologies Grand Island, N.Y.) was added. Readings were taken in a Synergy Neo Plate reader (BioTek, Winooski) at single excitation of 340 nm and Dual emission at 495 nm and 520 nm respectively.
The following equations were used for LanthaScreen Eu Kinase Binding Assay Data Analysis. Percent inhibition (100-% activity) was fitted to the “four-parameter logistic model” in XLfit for determination of IC50 values.

[3] = target: T3, PI3Kδ kinase (Homo sapiens, UniProt O00329); assay: PI3Kδ kinase assay (ADP-Glo, Reaction Biology); type: biochemical
T3 construct: purchased Reaction Biology Corporation (assay service)
T3 sequence (O00329 whole entry): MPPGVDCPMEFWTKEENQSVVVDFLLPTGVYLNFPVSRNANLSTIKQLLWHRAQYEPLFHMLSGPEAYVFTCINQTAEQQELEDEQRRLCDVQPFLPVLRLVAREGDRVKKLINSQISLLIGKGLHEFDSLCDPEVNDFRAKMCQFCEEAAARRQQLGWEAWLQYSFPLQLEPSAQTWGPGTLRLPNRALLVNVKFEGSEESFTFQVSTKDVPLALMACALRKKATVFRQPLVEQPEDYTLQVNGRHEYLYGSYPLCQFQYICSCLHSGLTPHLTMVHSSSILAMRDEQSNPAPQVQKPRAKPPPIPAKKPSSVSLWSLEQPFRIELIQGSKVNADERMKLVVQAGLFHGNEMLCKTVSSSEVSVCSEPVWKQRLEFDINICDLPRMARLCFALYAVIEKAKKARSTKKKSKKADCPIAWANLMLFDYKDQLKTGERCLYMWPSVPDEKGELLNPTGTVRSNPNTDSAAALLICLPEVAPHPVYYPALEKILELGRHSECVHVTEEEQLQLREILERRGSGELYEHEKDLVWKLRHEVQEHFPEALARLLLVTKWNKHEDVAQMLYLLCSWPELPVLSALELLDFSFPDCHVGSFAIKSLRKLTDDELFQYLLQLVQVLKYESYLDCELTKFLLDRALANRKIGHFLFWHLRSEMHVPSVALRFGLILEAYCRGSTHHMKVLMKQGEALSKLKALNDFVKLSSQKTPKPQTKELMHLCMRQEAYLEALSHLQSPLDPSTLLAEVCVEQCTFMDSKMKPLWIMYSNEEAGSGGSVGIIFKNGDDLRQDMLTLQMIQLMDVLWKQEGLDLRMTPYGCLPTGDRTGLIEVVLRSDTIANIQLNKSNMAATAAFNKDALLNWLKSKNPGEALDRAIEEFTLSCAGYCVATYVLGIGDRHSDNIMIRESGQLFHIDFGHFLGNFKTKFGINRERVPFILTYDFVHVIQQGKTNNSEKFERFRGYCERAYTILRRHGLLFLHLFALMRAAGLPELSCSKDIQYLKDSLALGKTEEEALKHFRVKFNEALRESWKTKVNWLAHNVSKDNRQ
T3 sequence (P27986 whole entry partner): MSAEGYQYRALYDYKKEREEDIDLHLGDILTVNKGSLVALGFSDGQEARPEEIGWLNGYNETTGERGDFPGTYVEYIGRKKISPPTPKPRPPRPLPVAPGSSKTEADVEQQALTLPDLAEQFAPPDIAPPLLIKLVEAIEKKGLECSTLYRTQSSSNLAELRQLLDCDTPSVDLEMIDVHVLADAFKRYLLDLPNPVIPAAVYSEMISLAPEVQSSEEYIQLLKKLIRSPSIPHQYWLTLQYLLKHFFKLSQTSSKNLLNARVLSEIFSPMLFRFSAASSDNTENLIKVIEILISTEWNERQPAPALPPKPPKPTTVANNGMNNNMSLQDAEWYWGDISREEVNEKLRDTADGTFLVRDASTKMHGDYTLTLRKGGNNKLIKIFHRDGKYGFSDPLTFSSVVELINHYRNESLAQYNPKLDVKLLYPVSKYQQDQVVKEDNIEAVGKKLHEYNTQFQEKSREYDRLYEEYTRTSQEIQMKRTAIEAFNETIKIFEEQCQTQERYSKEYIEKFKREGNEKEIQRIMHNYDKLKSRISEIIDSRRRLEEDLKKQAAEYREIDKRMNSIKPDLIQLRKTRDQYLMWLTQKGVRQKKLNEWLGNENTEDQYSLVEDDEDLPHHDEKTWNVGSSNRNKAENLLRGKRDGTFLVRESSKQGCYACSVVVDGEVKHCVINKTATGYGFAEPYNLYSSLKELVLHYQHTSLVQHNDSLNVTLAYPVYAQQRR
Procedure: IC50 values of compounds against the PI3Kδ kinase were determined by an assay performed by Reaction Biology Corporation (Malvern, Pa.). Briefly, this assay was conducted in buffer (Tris-HCl 40 mM (pH7.5), Orthovanadate 3 mM, MgCl2 20 mM, DTT 2 mM, CHAPS 0.05%, DMSO 1%). PI3Kδ kinase was added to the reaction solution and mixed gently. The test compounds in 100% DMSO (at specific solutions) were mixed with the kinase reaction mixture to achieve the final compounds at pre-defined concentrations (e.g., range −0.5 nM to 100 μM) by Acoustic technology (Echo550; nanoliter range). After incubating for 10 min at room temp, ATP was added into the reaction mixture to initiate the reaction followed by a 30-min incubation at 30° C. After quenching the reaction with ADP-Glo reagent, the plates were incubated for 40 min. The Detection Mixture was added, and the plate was incubated for an additional 30 min. At the end of incubation, luminescence was measured. For data analysis, the luminescence was converted into μM ADP production based on ADP standard curves. The nonlinear regression to obtain the standard curve and IC50 values was performed using GraphPad Prism (GraphPad Software, Inc., San Diego, Calif.).

[4] = target: T4, CDK6 (Homo sapiens, UniProt Q00534); assay: In vitro kinase inhibition IC50, luminescence (ADP Glo), retinoblastoma substrate; type: biochemical; conditions: read-out: CDK6/D1 IC50
T4 construct: purchased Invitrogen PR8422B
T4 sequence (Q00534 whole entry): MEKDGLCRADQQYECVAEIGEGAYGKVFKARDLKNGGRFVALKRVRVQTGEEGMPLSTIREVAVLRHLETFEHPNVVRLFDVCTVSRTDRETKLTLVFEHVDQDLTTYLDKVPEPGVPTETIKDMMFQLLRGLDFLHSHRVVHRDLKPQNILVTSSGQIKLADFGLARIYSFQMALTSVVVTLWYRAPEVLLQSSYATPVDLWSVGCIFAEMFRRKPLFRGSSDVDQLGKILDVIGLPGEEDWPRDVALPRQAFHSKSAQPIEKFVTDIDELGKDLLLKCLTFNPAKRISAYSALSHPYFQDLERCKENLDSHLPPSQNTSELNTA
T4 sequence (P24385 whole entry partner): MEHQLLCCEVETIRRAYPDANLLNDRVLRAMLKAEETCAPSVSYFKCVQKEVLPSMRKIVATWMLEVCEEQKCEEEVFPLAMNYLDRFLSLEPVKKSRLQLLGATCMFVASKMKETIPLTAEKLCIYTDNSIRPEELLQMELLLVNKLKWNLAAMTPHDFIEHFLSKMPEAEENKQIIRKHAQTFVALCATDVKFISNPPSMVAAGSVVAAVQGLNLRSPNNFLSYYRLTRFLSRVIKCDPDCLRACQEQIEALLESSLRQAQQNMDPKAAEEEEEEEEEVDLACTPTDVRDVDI
Procedure: as §1, §2, §3, §4

[5] = test system: MCF-7 breast adenocarcinoma cells; assay: Cancer cell proliferation assay, single agent (cell viability); type: cell-based; conditions: Homo sapiens, MCF7, Table 4; Rb positive; treatment 144 Hr with medium change at 72 Hr; Cell Titer-Glo or resazurin
Procedure: (§5) The effects of test compounds were studied in three breast cancer cell lines of different subtype. The cancer cells (Table 3) were harvested during the logarithmic growth period and counted. Cell concentrations were adjusted to the appropriate number with respective medium and 90 μL cell suspensions were added to 96-well plates. After cells were seeded, the plates were shaken gently to distribute cells evenly and incubated at 37° C., 5% CO2 on day 1.
(§6) Cells were treated with test compounds at 7 to 9 concentrations within a desired concentration range (e.g. 1.1 nM-10 μM) on day 2 by series diluting the test compound stock solution (10 mM in DMSO) with culture medium. Treatment duration was 24 Hr for BT-549 cells and 144 Hr (with a medium change at 72 Hr) for MCF-7 and DU4475 cells. Cell viability was assessed by Cell Titer-Glo® as recommended by Promega (Cat. No.: G7572), or by resazurin assay (Sigma Aldrich, Cat. No.: R7017) post treatment.
(§7) Cell viability data were plotted using GraphPad Prism (GraphPad Software, Inc., San Diego, Calif.). In addition, a nonlinear regression model with a sigmoidal dose response and variable slope within GraphPad Prism was used to calculate the IC50 value of individual test compounds.

[6] = test system: DU4475 breast carcinoma cells; assay: as above; type: cell-based; conditions: Homo sapiens, DU-4475; Table 4; Rb negative; treatment 144 Hr with medium change at 72 Hr; Cell Titer-Glo or resazurin
Procedure: as §5, §6, §7

T1 sequence (P11802 whole entry): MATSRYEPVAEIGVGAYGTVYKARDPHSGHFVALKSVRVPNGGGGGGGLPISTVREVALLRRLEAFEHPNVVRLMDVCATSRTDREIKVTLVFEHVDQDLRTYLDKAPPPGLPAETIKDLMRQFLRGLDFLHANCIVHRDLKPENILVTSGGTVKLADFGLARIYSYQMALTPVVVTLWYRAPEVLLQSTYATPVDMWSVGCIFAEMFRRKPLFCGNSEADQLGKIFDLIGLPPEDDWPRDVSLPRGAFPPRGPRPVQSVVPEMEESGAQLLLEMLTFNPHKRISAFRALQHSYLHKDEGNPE
T1 sequence (P24385 whole entry partner): as the sequence (P24385 whole entry partner) above

Structure (SMILES)	IC50 [1] [µM]	IC50 [2] [µM]	IC50 [3] [µM]	IC50 [4] [µM]	IC50 [5] [µM]	IC50 [6] [µM]
CN1CCN(c2ccc(Nc3ncc4cc(C#N)c(=O)n([C@H]5CC[C@H](C)CC5)c4n3)cc2)CC1 [Compound No. 1, 8-((1r,4r)-4-methylcyclohexyl)-2-((4-(4-methylpiperazin-1-yl)phenyl)amino)-7-oxo-7,8-dihydropyrido[2,3-d]pyrimidine-6-carbonitrile]	0.002	< 0.3	0.389	0.001	8.05	–
C[C@H]1CC[C@H](n2c(=O)c(C#N)cc3cnc(Nc4cccc(S(N)(=O)=O)c4)nc32)CC1 [Compound No. 2, 3-((6-cyano-8-((1r,4r)-4-methylcyclohexyl)-7-oxo-7,8-dihydropyrido[2,3-d]pyrimidin-2-yl)amino)benzenesulfonamide]	–	0.18	0.129	–	–	–
N#Cc1cc2cnc(Nc3cccc(S(N)(=O)=O)c3)nc2n(C2CCCC2)c1=O [Compound No. 3, 3-((6-cyano-8-cyclopentyl-7-oxo-7,8-dihydropyrido[2,3-d]pyrimidin-2-yl)amino)benzenesulfonamide]	0.012	0.035	0.13	0.014	–	–
C[C@H]1CC[C@H](n2c(=O)c(C#N)cc3cnc(Nc4cccc(C(N)=O)c4)nc32)CC1 [Compound No. 4, 3-((6-cyano-8-((1r,4r)-4-methylcyclohexyl)-7-oxo-7,8-dihydropyrido[2,3-d]pyrimidin-2-yl)amino)benzamide]	–	0.001	2.73	–	–	–
CN(C)CCNC(=O)c1cccc(Nc2ncc3cc(C#N)c(=O)n(C4CCCC4)c3n2)c1 [Compound No. 11, 3-((6-cyano-8-cyclopentyl-7-oxo-7,8-dihydropyrido[2,3-d]pyrimidin-2-yl)amino)-N-(2-(dimethylamino)ethyl)benzamide]	–	0.0024	1.03	–	–	–
CCC(CC)n1c(=O)c(C#N)cc2cnc(Nc3ccc4c(c3)CCNC4)nc21 [Compound No. 86, 7-oxo-8-(pentan-3-yl)-2-((1,2,3,4-tetrahydroisoquinolin-6-yl)amino)-7,8-dihydropyrido[2,3-d]pyrimidine-6-carbonitrile]	0.177	–	0.84	0.025	0.532	1.4
N#Cc1cc2ccc(Nc3ccc4c(c3)CCNC4)nc2n(C2CCCC2)c1=O [Compound No. 97, 1-cyclopentyl-2-oxo-7-((1,2,3,4-tetrahydroisoquinolin-6-yl)amino)-1,2-dihydro-1,8-naphthyridine-3-carbonitrile]	> 0.2	–	> 50	> 0.2	1.61	1.27
CN1CCC(c2ccc(Nc3ccc4cc(C#N)c(=O)n(C5CCCC5)c4n3)cc2)CC1 [Compound No. 98, 1-cyclopentyl-7-((4-(1-methylpiperidin-4-yl)phenyl)amino)-2-oxo-1,2-dihydro-1,8-naphthyridine-3-carbonitrile]	> 0.2	–	> 50	> 0.2	1.73	1.43

Second part, the compound after the results:

IC50 [1] [µM]	IC50 [2] [µM]	IC50 [3] [µM]	IC50 [4] [µM]	IC50 [5] [µM]	IC50 [6] [µM]	Structure (SMILES)
> 0.2	> 5	> 30	–	–	–	CN1CCN(CCCn2cc(Nc3ncc4cc(C#N)c(=O)n(C5CCCC5)c4n3)cn2)CC1 [Compound 56]
> 0.2	4.52	> 30	–	–	–	CN1CCN(C(=O)Cn2cc(Nc3ncc4cc(C#N)c(=O)n(C5CCCC5)c4n3)cn2)CC1 [Compound 58]
0.212	0.001	0.444	0.048	–	–	N#Cc1cc2cnc(Nc3cccc(C(N)=O)c3)nc2n(C2CCCC2)c1=O [Compound No. 5, 3-((6-cyano-8-cyclopentyl-7-oxo-7,8-dihydropyrido[2,3-d]pyrimidin-2-yl)amino)benzamide]
–	< 0.001	0.955	–	–	–	N#Cc1cc2cnc(Nc3ccc4c(c3)NC(=O)CC4)nc2n(C2CCCC2)c1=O [Compound No. 9, 8-cyclopentyl-7-oxo-2-((2-oxo-1,2,3,4-tetrahydroquinolin-7-yl)amino)-7,8-dihydropyrido[2,3-d]pyrimidine-6-carbonitrile]
–	0.0004	1.33	–	2.5	–	N#Cc1cc2cnc(Nc3ccc(N4CCNCC4=O)cc3)nc2n(C2CCCC2)c1=O [Compound No. 12, 8-cyclopentyl-7-oxo-2-((4-(2-oxopiperazin-1-yl)phenyl)amino)-7,8-dihydropyrido[2,3-d]pyrimidine-6-carbonitrile]
–	0.0025	0.976	–	–	–	N#Cc1cc2cnc(Nc3ccc(S(=O)(=O)N4CCC(O)CC4)cc3)nc2n(C2CCCC2)c1=O [Compound No. 14, 8-cyclopentyl-2-((4-((4-hydroxypiperidin-1-yl)sulfonyl)phenyl)amino)-7-oxo-7,8-dihydropyrido[2,3-d]pyrimidine-6-carbonitrile]
–	0.0055	3.73	–	–	–	CN1CCN(S(=O)(=O)c2ccc(Nc3ncc4cc(C#N)c(=O)n(C5CCCC5)c4n3)cc2)CC1 [Compound No. 15, 8-cyclopentyl-2-((4-((4-methylpiperazin-1-yl)sulfonyl)phenyl)amino)-7-oxo-7,8-dihydropyrido[2,3-d]pyrimidine-6-carbonitrile]
> 0.2	–	> 50	0.154	2.44	1.7	CN1CCN(c2ccc(Nc3ccc4cc(C#N)c(=O)n(C5CCCC5)c4n3)cc2)CC1 [Compound No. 96, 1-cyclopentyl-7-((4-(4-methylpiperazin-1-yl)phenyl)amino)-2-oxo-1,2-dihydro-1,8-naphthyridine-3-carbonitrile]

Source: patent US20220273659A1, “HETEROCYCLIC COMPOUNDS AS KINASE INHIBITORS” (NUVATION BIO INC., priority 2019, published 2022)
